Results reported in the NIST ThermoML archive (doi:10.1021/je101130e).
± gives the expanded uncertainty stated by the source.

Assays:
[1] = mn = molality of the nth substance listed, in mol/kg; conditions: 298.15 K, 101 kPa, Liquid, Vibrating tube method
[2] = cn = amount concentration of the nth substance listed, in mol/dm3; conditions: 101 kPa, Liquid, Alternating current cell with electrodes

CCOS(=O)(=O)[O-].CCn1cc[n+](C)c1 [1-ethyl-3-methylimidazolium ethyl sulfate] + CC#N
[1]
Conditions	mass density [kg/m3]
m1 = 0.006546	777.183 ± 10
m1 = 0.1445	788.755 ± 10

molar conductivity [S·m2/mol], [2]
Conditions	273.15 K	278.15 K	283.15 K	288.15 K	293.15 K	298.15 K	303.15 K	308.15 K	313.15 K
c1 = 0.3706	0.01282 ± 1.3e-05	0.01356 ± 1.4e-05	0.014309 ± 1.4e-05	0.015072 ± 1.5e-05	0.01584 ± 1.6e-05	0.01663 ± 1.7e-05	0.017423 ± 1.7e-05	0.018226 ± 1.8e-05	0.019045 ± 1.9e-05
c1 = 0.7493	0.01255 ± 1.3e-05	0.01327 ± 1.3e-05	0.014004 ± 1.4e-05	0.01475 ± 1.5e-05	0.0155 ± 1.6e-05	0.016262 ± 1.6e-05	0.01704 ± 1.7e-05	0.01782 ± 1.8e-05	0.01862 ± 1.9e-05
c1 = 1.176	0.012313 ± 1.2e-05	0.013021 ± 1.3e-05	0.01374 ± 1.4e-05	0.01447 ± 1.5e-05	0.015211 ± 1.5e-05	0.01596 ± 1.6e-05	0.01672 ± 1.7e-05	0.017492 ± 1.7e-05	0.018273 ± 1.8e-05
c1 = 1.698	0.012085 ± 1.2e-05	0.01278 ± 1.3e-05	0.013489 ± 1.3e-05	0.014207 ± 1.4e-05	0.01493 ± 1.5e-05	0.01567 ± 1.6e-05	0.016414 ± 1.6e-05	0.017171 ± 1.7e-05	0.01794 ± 1.8e-05
c1 = 2.185	0.01189 ± 1.2e-05	0.01258 ± 1.3e-05	0.013276 ± 1.3e-05	0.01398 ± 1.4e-05	0.0147 ± 1.5e-05	0.01542 ± 1.5e-05	0.016154 ± 1.6e-05	0.0169 ± 1.7e-05	0.01765 ± 1.8e-05
c1 = 2.695	0.01172 ± 1.2e-05	0.012392 ± 1.2e-05	0.013078 ± 1.3e-05	0.01377 ± 1.4e-05	0.01448 ± 1.5e-05	0.01519 ± 1.5e-05	0.01591 ± 1.6e-05	0.01664 ± 1.7e-05	0.017386 ± 1.7e-05
c1 = 3.269	0.01154 ± 1.2e-05	0.012206 ± 1.2e-05	0.01288 ± 1.3e-05	0.01357 ± 1.4e-05	0.014261 ± 1.4e-05	0.01496 ± 1.5e-05	0.01567 ± 1.6e-05	0.016396 ± 1.6e-05	0.017125 ± 1.7e-05
c1 = 3.882	0.011371 ± 1.1e-05	0.012029 ± 1.2e-05	0.0127 ± 1.3e-05	0.01337 ± 1.3e-05	0.014054 ± 1.4e-05	0.01475 ± 1.5e-05	0.015446 ± 1.5e-05	0.016155 ± 1.6e-05	0.01687 ± 1.7e-05
c1 = 4.671	0.01117 ± 1.1e-05	0.01182 ± 1.2e-05	0.01247 ± 1.3e-05	0.013136 ± 1.3e-05	0.01381 ± 1.4e-05	0.01449 ± 1.5e-05	0.015177 ± 1.5e-05	0.01588 ± 1.6e-05	0.01658 ± 1.7e-05
c1 = 5.374	0.011016 ± 1.1e-05	0.01165 ± 1.2e-05	0.0123 ± 1.2e-05	0.01295 ± 1.3e-05	0.01362 ± 1.4e-05	0.014287 ± 1.4e-05	0.01497 ± 1.5e-05	0.01566 ± 1.6e-05	0.01635 ± 1.6e-05
c1 = 5.987	0.01089 ± 1.1e-05	0.01152 ± 1.2e-05	0.012165 ± 1.2e-05	0.01281 ± 1.3e-05	0.01347 ± 1.3e-05	0.014134 ± 1.4e-05	0.0148 ± 1.5e-05	0.01549 ± 1.6e-05	0.016173 ± 1.6e-05
c1 = 6.546	0.01079 ± 1.1e-05	0.011417 ± 1.1e-05	0.012051 ± 1.2e-05	0.01269 ± 1.3e-05	0.013343 ± 1.3e-05	0.014 ± 1.4e-05	0.01467 ± 1.5e-05	0.015338 ± 1.5e-05	0.016021 ± 1.6e-05

CCOS(=O)(=O)[O-].CCn1cc[n+](C)c1 [1-ethyl-3-methylimidazolium ethyl sulfate] + ClCCl
molar conductivity [S·m2/mol], [2]
Conditions	273.15 K	278.15 K	283.15 K	288.15 K	293.15 K	298.15 K	303.15 K	308.15 K
c1 = 0.5399	0.0004064 ± 4e-07	0.0004194 ± 4e-07	0.0004324 ± 4e-07	0.0004454 ± 4e-07	0.0004554 ± 5e-07	0.000462 ± 5e-07	0.000471 ± 5e-07	0.0004771 ± 5e-07
c1 = 0.8656	0.0003364 ± 3e-07	0.0003471 ± 4e-07	0.0003579 ± 4e-07	0.0003684 ± 4e-07	0.0003768 ± 4e-07	0.0003829 ± 4e-07	0.0003904 ± 4e-07	0.0003958 ± 4e-07
c1 = 1.152	0.0003033 ± 3e-07	0.0003131 ± 3e-07	0.0003228 ± 3e-07	0.0003322 ± 3e-07	0.0003398 ± 3e-07	0.0003455 ± 3e-07	0.0003521 ± 4e-07	0.0003571 ± 4e-07
c1 = 1.504	0.0002764 ± 3e-07	0.0002855 ± 3e-07	0.0002943 ± 3e-07	0.0003028 ± 3e-07	0.0003098 ± 3e-07	0.0003152 ± 3e-07	0.0003212 ± 3e-07	0.0003258 ± 3e-07
c1 = 1.808	0.0002603 ± 3e-07	0.0002689 ± 3e-07	0.0002772 ± 3e-07	0.0002852 ± 3e-07	0.0002918 ± 3e-07	0.0002971 ± 3e-07	0.0003029 ± 3e-07	0.0003073 ± 3e-07
c1 = 2.099	0.0002493 ± 3e-07	0.0002575 ± 3e-07	0.0002653 ± 3e-07	0.000273 ± 3e-07	0.0002794 ± 3e-07	0.0002845 ± 3e-07	0.00029 ± 3e-07	0.0002942 ± 3e-07
c1 = 2.376	0.0002409 ± 2e-07	0.0002489 ± 3e-07	0.0002566 ± 3e-07	0.000264 ± 3e-07	0.0002702 ± 3e-07	0.0002753 ± 3e-07	0.0002806 ± 3e-07	0.0002849 ± 3e-07
c1 = 2.723	0.0002334 ± 2e-07	0.0002412 ± 2e-07	0.0002486 ± 3e-07	0.0002557 ± 3e-07	0.0002618 ± 3e-07	0.0002668 ± 3e-07	0.000272 ± 3e-07	0.0002762 ± 3e-07
c1 = 3.074	0.0002276 ± 2e-07	0.0002352 ± 2e-07	0.0002425 ± 2e-07	0.0002494 ± 3e-07	0.0002554 ± 3e-07	0.0002604 ± 3e-07	0.0002655 ± 3e-07	0.0002698 ± 3e-07
c1 = 3.333	0.000224 ± 2e-07	0.0002315 ± 2e-07	0.0002387 ± 2e-07	0.0002455 ± 3e-07	0.0002514 ± 3e-07	0.0002564 ± 3e-07	0.0002615 ± 3e-07	0.0002657 ± 3e-07
c1 = 3.607	0.0002213 ± 2e-07	0.0002288 ± 2e-07	0.0002359 ± 2e-07	0.0002427 ± 2e-07	0.0002488 ± 3e-07	0.0002538 ± 3e-07	0.0002588 ± 3e-07	0.000263 ± 3e-07
c1 = 3.931	0.000219 ± 2e-07	0.0002264 ± 2e-07	0.0002334 ± 2e-07	0.0002401 ± 2e-07	0.0002459 ± 3e-07	0.000251 ± 3e-07	0.000256 ± 3e-07	0.0002601 ± 3e-07

CCOS(=O)(=O)[O-].CCn1cc[n+](C)c1 [1-ethyl-3-methylimidazolium ethyl sulfate] + O
[1]
Conditions	mass density [kg/m3]
m1 = 0.005086	997.281 ± 10
m1 = 0.06934	1000.11 ± 10

molar conductivity [S·m2/mol], [2]
Conditions	c1 = 0.6368	c1 = 1.07	c1 = 1.527	c1 = 1.991	c1 = 2.48	c1 = 3.114	c1 = 3.767	c1 = 4.385	c1 = 5.086
278.15 K	0.00496 ± 5e-06	0.0049391 ± 4.9e-06	0.0049163 ± 4.9e-06	0.004892 ± 4.9e-06	0.004877 ± 4.9e-06	0.0048486 ± 4.8e-06	0.0048261 ± 4.8e-06	0.00479 ± 4.8e-06	0.004783 ± 4.8e-06
283.15 K	0.0057155 ± 5.7e-06	0.00569 ± 5.7e-06	0.005664 ± 5.7e-06	0.0056374 ± 5.6e-06	0.0056159 ± 5.6e-06	0.005585 ± 5.6e-06	0.005559 ± 5.6e-06	0.0055336 ± 5.5e-06	0.0055088 ± 5.5e-06
288.15 K	0.0065118 ± 6.5e-06	0.00648 ± 6.5e-06	0.0064496 ± 6.4e-06	0.0064206 ± 6.4e-06	0.006395 ± 6.4e-06	0.00636 ± 6.4e-06	0.0063311 ± 6.3e-06	0.0063021 ± 6.3e-06	0.006274 ± 6.3e-06
293.15 K	0.0073408 ± 7.3e-06	0.0073039 ± 7.3e-06	0.007271 ± 7.3e-06	0.0072366 ± 7.2e-06	0.0072073 ± 7.2e-06	0.007169 ± 7.2e-06	0.007135 ± 7.1e-06	0.0071023 ± 7.1e-06	0.007071 ± 7.1e-06
298.15 K	0.0082055 ± 8.2e-06	0.008163 ± 8.2e-06	0.008125 ± 8.1e-06	0.008088 ± 8.1e-06	0.008054 ± 8.1e-06	0.0080112 ± 8e-06	0.007974 ± 8e-06	0.0079372 ± 7.9e-06	0.0079028 ± 7.9e-06
303.15 K	0.009098 ± 9.1e-06	0.009052 ± 9.1e-06	0.0090088 ± 9e-06	0.008967 ± 9e-06	0.00893 ± 8.9e-06	0.008882 ± 8.9e-06	0.0088395 ± 8.8e-06	0.008799 ± 8.8e-06	0.008761 ± 8.8e-06
308.15 K	0.010022 ± 1e-05	0.00997 ± 1e-05	0.0099213 ± 9.9e-06	0.009875 ± 9.9e-06	0.0098348 ± 9.8e-06	0.009782 ± 9.8e-06	0.0097357 ± 9.7e-06	0.009689 ± 9.7e-06	0.0096453 ± 9.6e-06
313.15 K	0.01096 ± 1.1e-05	0.01092 ± 1.1e-05	0.01086 ± 1.1e-05	0.01081 ± 1.1e-05	0.01076 ± 1.1e-05	0.01071 ± 1.1e-05	0.01066 ± 1.1e-05	0.01061 ± 1.1e-05	0.01056 ± 1.1e-05
